Data reported in PMC3835719 (MedChemComm, 2013).

Experiments:
[1] = tested on: HT-29 human colon cancer cells; test: MTT cell growth inhibition, HT-29 colon cancer cells; assay type: cell-based; details: for Potency enhancement, Colon HT-29: ratio of IC50 values parent NSAID/NOSH-NSAID, 24 hr
[2] = tested on: Jurkat T human leukemia cells; test: MTT cell growth inhibition, Jurkat T leukemia cells; assay type: cell-based; details: ratio of IC50 values parent NSAID/NOSH-NSAID, 24 hr
[3] = tested on: MCF-7 (estrogen receptor positive) breast cancer cells; test: MTT cell growth inhibition, MCF-7 breast cancer cells; assay type: cell-based, human; details: ratio of IC50 values parent NSAID/NOSH-NSAID, 24 hr
[4] = tested on: BxPC-3 human pancreatic cancer cells; test: MTT cell growth inhibition, BxPC-3 pancreatic cancer cells; assay type: cell-based; details: ratio of IC50 values parent NSAID/NOSH-NSAID, 24 hr
[5] = tested on: human mammary epithelial cell line (HMEpC); test: Cell growth inhibition, normal mammary epithelial cells; assay type: cell-based; details: IC50 at 24h, HMEpC vs MCF-7
[6] = tested on: HT-29 human colon cancer cells; test: Proliferation by PCNA antigen expression; assay type: cell-based; details: at IC50 for cell growth inhibition, 24 hrs
[7] = tested on: HT-29 human colon cancer cells; test: Cell cycle phases by PI staining and flow cytometry; assay type: cell-based; details: at IC50
[8] = tested on: human cancer cell lines of colon, breast, pancreas, and leukemia; test: MTT cell growth inhibition, panel of four cancer cell lines; assay type: cell-based; details: ratio of IC50 values parent/NOSH compound, 24 h
[9] = tested on: human primary pancreatic epithelial cells (HPDE, ACBRI 515); test: Cell growth inhibition, normal pancreatic epithelial cells; assay type: cell-based; details: 24 h, read-out: IC50 for cell growth inhibition, Pancreatic Epithelial HPDE (ACBRI 515)

Structure (SMILES): C[C@H](C(=O)Oc1ccc(-c2cc(=S)ss2)cc1)c1ccc2cc(OC(=O)CCCO[N+](=O)[O-])ccc2c1 [NOSH-NAP, (S)-6-(1-oxo-1-(4-(3-thioxo-3H-1,2-dithiol-5-yl)phenoxy)propan-2-yl) naphthalen-2-yl 4-(nitrooxy) butanoate]
- Fold more potent than the combination (sum of its parts) ([1]; HT-29, intact molecule vs naproxen plus SNAP and ADT-OH): approximately 8000 fold
- Potency enhancement, Colon HT-29 [1]: ~34,000
- Potency enhancement, Leukemia Jurkats [2]: ~25,000
- Potency enhancement, Breast MCF-7 [3]: ~20,000
- Potency enhancement, Pancreas BxPC-3 [4]: ~16,000
- Fold more potent in breast cancer cell line (MCF-7) than in normal HMEpC cells [5]: approximately 115 fold
- Reduction of proliferation (PCNA expression) [6]: approximately 50%
- Mode of cell cycle arrest [7]: G0/G1 cell cycle block
- Enhanced potency over parent compound, range over the cancer cell lines [8]: 16,000-34,000 fold

Structure (SMILES): CC1=C(CC(=O)Oc2ccc(OC(=O)CCCO[N+](=O)[O-])c(C(=O)Oc3ccc(-c4cc(=S)ss4)cc3)c2)c2cc(F)ccc2/C1=C\c1ccc([S+](C)[O-])cc1 (stereo not drawn) [NOSH-SUL, (Z)-4-(3-thioxo-3H-1,2-dithiol-5-yl) phenyl 5-(2-(5-fluoro-2-methyl-1-(4-(methylsulfinyl)benzylidene)-1H-inden-3-yl)acetoxy)-2-((4-(nitrooxy)butanoyl)oxy) benzoate]
- Potency enhancement, Colon HT-29 [1]: ~9,000
- Potency enhancement, Leukemia Jurkats [2]: ~2,500
- Potency enhancement, Breast MCF-7 [3]: ~9,650
- Potency enhancement, Pancreas BxPC-3 [4]: ~8,200
- Fold more potent in breast cancer cell line (MCF-7) than in normal HMEpC cells [5]: about 150 fold
- IC50 [9]: > 25 µM
- Reduction of proliferation (PCNA expression) [6]: approximately 50%
- Mode of cell cycle arrest [7]: G2/M block
- Enhanced potency over parent compound, range over the cancer cell lines [8]: 2,500-9,650 fold
